Results: US20100248390A1, “COMPOSITIONS AND METHODS FOR IDENTIFYING LIGANDS OF ODORANT RECEPTORS” (DUKE UNIVERSITY, priority 2009, published 2010)
Several values for one entry are separate records, joined by “and”; a condition that tells them apart may be missing. Equal entries are not always repeated. One block for each molecule: values may come before it.

System: mouse odorant receptors (ORs)
Test: CRE-luciferase assay of odorant receptor activation (Dual-Glo, Hana3A cells, RTP1S), dose-response EC50
Assay type: cell-based
Settings: for log EC50 (Table 4 value), MOR203-1 / log EC50 of odorant at MOR203-1 (0 = no response): receptor MOR203-1; for log EC50 (Table 4 value), MOR189-1: receptor MOR189-1; for log EC50 of odorant at MOR260-1 (0 = no response): receptor MOR260-1; for log EC50 of odorant at MOR5-1 (0 = no response): receptor MOR5-1; for log EC50 of odorant at MOR30-1 (0 = no response): receptor MOR30-1; for log EC50 of odorant at MOR33-1 (0 = no response): receptor MOR33-1; for log EC50 of odorant at MOR40-1 (0 = no response): receptor MOR40-1

Structure (SMILES): CC(=O)OCc1ccccc1 [Benzyl acetate]
log EC50 (Table 4 value), MOR41-1 (receptor MOR41-1): −3.972
log EC50 (Table 4 value), MOR139-1 (receptor MOR139-1): −3.729
log EC50 (Table 4 value), MOR203-1: −3.531
log EC50 (Table 4 value), MOR223-1 (receptor MOR223-1): −3.841
log EC50 (Table 4 value), MOR261-1 (receptor MOR261-1): −3.352
log EC50 (Table 4 value), MOR271-1 (receptor MOR271-1): −5.379
log EC50 (Table 4 value), MOR272-1 (receptor MOR272-1): −4.948

Structure (SMILES): O=c1ccc2ccccc2o1 [Coumarin]
log EC50 (Table 4 value), MOR41-1 (receptor MOR41-1): −4.785
log EC50 (Table 4 value), MOR106-1 (receptor MOR106-1): −3.919
log EC50 (Table 4 value), MOR129-1 (receptor MOR129-1): −4.04
log EC50 (Table 4 value), MOR139-1 (receptor MOR139-1): −3.749
log EC50 (Table 4 value), MOR161-1 (receptor MOR161-1): −3.139
log EC50 (Table 4 value), MOR162-1 (receptor MOR162-1): −4.483
log EC50 (Table 4 value), MOR170-1 (receptor MOR170-1): −3.989
log EC50 (Table 4 value), MOR185-1 (receptor MOR185-1): −4.042
log EC50 (Table 4 value), MOR189-1: −3.215
log EC50 (Table 4 value), MOR207-1 (receptor MOR207-1): −3.905
log EC50 (Table 4 value), MOR250-1 (receptor MOR250-1): −3.855
log EC50 (Table 4 value), MOR258-1 (receptor MOR258-1): −4.296
log EC50 (Table 4 value), MOR259-1 (receptor MOR259-1): −3.834

Structure (SMILES): CCCCCC1=C(C)CCC1=O [Dihydroiasmone]
log EC50 (Table 4 value), MOR41-1 (receptor MOR41-1): −3.766
log EC50 (Table 4 value), MOR139-1 (receptor MOR139-1): −4.308
log EC50 (Table 4 value), MOR189-1: −3.945
log EC50 (Table 4 value), MOR205-1 (receptor MOR205-1): −4.699
log EC50 (Table 4 value), MOR271-1 (receptor MOR271-1): −4.126
log EC50 (Table 4 value), MOR272-1 (receptor MOR272-1): −4.447
log EC50 (Table 4 value), MOR273-1 (receptor MOR273-1): −4.441

Structure (SMILES): CCCCCCCCC(=O)O [Nonanoic acid]
log EC50 of odorant at MOR5-1 (0 = no response): −4.029
log EC50 of odorant at MOR18-1 (0 = no response) (receptor MOR18-1): −4.077
log EC50 of odorant at MOR30-1 (0 = no response): −4.396
log EC50 of odorant at MOR33-1 (0 = no response): −4.606
log EC50 of odorant at MOR37-1 (0 = no response) (receptor MOR37-1): −3.9
log EC50 of odorant at MOR40-1 (0 = no response): −4.128
log EC50 of odorant at MOR203-1 (0 = no response): −3.478
log EC50 of odorant at MOR260-1 (0 = no response): −4.108

Next, values leading:

log EC50 (Table 4 value), MOR139-1 (receptor MOR139-1): −3.939
log EC50 (Table 4 value), MOR203-1: −3.622
log EC50 (Table 4 value), MOR238-1 (receptor MOR238-1): −3.843
log EC50 (Table 4 value), MOR268-1 (receptor MOR268-1): −3.897
Structure (SMILES): CC(C)=CCC/C(C)=C/CO [Getaniol]

log EC50 of odorant at MOR203-1 (0 = no response): −3.528
log EC50 of odorant at MOR260-1 (0 = no response): −4.488
log EC50 of odorant at MOR261-1 (0 = no response) (receptor MOR261-1): −3.376
log EC50 of odorant at MOR268-1 (0 = no response) (receptor MOR268-1): −3.589
Structure (SMILES): CCCCCCCCCS [Nonanethiol]

log EC50 of odorant at MOR203-1 (0 = no response): −3.356
Structure (SMILES): CCCCCCCCS [Octanethiol]

log EC50 of odorant at MOR5-1 (0 = no response): −3.711
log EC50 of odorant at MOR23-1 (0 = no response) (receptor MOR23-1): −5.053
log EC50 of odorant at MOR25-1 (0 = no response) (receptor MOR25-1): −3.689
log EC50 of odorant at MOR30-1 (0 = no response): −3.68
log EC50 of odorant at MOR33-1 (0 = no response): −4.212
log EC50 of odorant at MOR40-1 (0 = no response): −3.617
Structure (SMILES): CCCCCCCC(=O)O [Octanoic Acid]

log EC50 of odorant at MOR41-1 (0 = no response) (receptor MOR41-1): −4.143
log EC50 of odorant at MOR106-1 (0 = no response) (receptor MOR106-1): −3.874
log EC50 of odorant at MOR139-1 (0 = no response) (receptor MOR139-1): −3.421 and −3.385
log EC50 of odorant at MOR223-1 (0 = no response) (receptor MOR223-1): −3.487
log EC50 of odorant at MOR250-1 (0 = no response) (receptor MOR250-1): −3.545
log EC50 of odorant at MOR258-1 (0 = no response) (receptor MOR258-1): −3.099
log EC50 of odorant at MOR271-1 (0 = no response) (receptor MOR271-1): −5.033
log EC50 of odorant at MOR272-1 (0 = no response) (receptor MOR272-1): −5.098
Structure (SMILES): CC(=O)Oc1ccccc1 [Phenyl acetate]
